Reference: patent publication US10071984B2, “Histone demethylase inhibitors” (Celgene Quanticel Research, Inc., priority 2014, dated 2018)

Tests used:
Type in all cases: biochemical
[1] = target: FBXL11 (Homo sapiens (Human), UniProt Q9Y2K7); assay: FBXL11 in vitro enzyme inhibition assay (AlphaScreen); conditions: 0.15 nM FBXL11, H3K36me2-biotin peptide
Source text: (§1) This assay determines the ability of a test compound to inhibit FBXL11, FBXL10, and PHF8 demethylase activity. Baculovirus expressed FBXL11 (GenBank Accession #NM_012308, AA1-1162) was purchased from BPS Bioscience (Cat#50102). Baculovirus expressed FBXL10 (GenBank Accession #NM_032590, AA 1-650) was purchased from BPS Bioscience (Cat #50120). Baculovirus expressed PHF8 (GenBank Accession NP_055922.1) was purchased from Active Motif (Cat#31435).
(§2) The ability of test compounds to inhibit the activity of FBXL11 was determined in 384-well plate format under the following reaction conditions: 0.15 nM FBXL11, 30 nM H3K36me2-biotin labeled peptide (Anaspec cat #64442), 0.2 μM alpha-ketoglutaric acid in assay buffer of 50 mM HEPES, pH7.3, 0.005% Brij35, 0.5 mM TCEP, 0.2 mg/ml BSA, 50 μM sodium L-ascorbate, 5 μM ammonium iron(II) sulfate. Reaction product is determined quantitatively by AlphaScreen detection after the addition of detection reagents anti-H3K36me1 antibody, AlphaScreen® Streptavidin-coated Donor beads, and AlphaScreen® Protein A Acceptor beads in 50 mM HEPES, pH7.3, 10 mM NaCl, 0.005% Brij35, 5 mM EDTA, 2 mg/ml BSA to final 10 μg/ml beads.
(§3) The assay reaction was initiated by the following: 3 μl of the mixture of 90 nM H3K36me2-biotin labeled peptide and 0.6 μM alpha-ketoglutaric acid with 3 μl of 11-point serial diluted inhibitor in 3% DMSO are added to each well of 384 well Proxiplate (Perkin Elmer), followed by the addition of 3 μl of 0.45 nM FBXL11 to initiate the reaction. The reaction mixture is incubated at room temperature for 1 hour, and terminated by the addition of 3 μl of appropriate dilution of anti H3K36me1 antibody in 50 mM HEPES, pH7.3, 10 mM NaCl, 0.005% Brij35, 5 mM EDTA, 2 mg/ml BSA. Plates will then incubated at room temperature for 40 minutes, followed by addition of 3 ul of 50 μg/ml AlphaScreen® Streptavidin-coated Donor beads and AlphaScreen® Protein A Acceptor beads in 50 mM HEPES, pH7.3, 10 mM NaCl, 0.005% Brij35, 5 mM EDTA, 2 mg/ml BSA. Plates will then be read by EnVision Multilabel Reader in AlphaScreen mode after minimum 2 hour incubation at room temperature. The AlphaScreen signal for each well is used to determine inhibition constant (IC50).
The ability of the compounds disclosed herein to inhibit demethylase activity was quantified and the respective IC50 value was determined. Table 3 provides the IC50 values of various compounds disclosed herein.

[2] = target: FBXL10 (Homo sapiens (Human), UniProt Q8NHM5); assay: FBXL10 in vitro enzyme inhibition assay (AlphaScreen); conditions: 0.3 nM FBXL10, H3K36me2-biotin peptide
FBXL10, sequence (Q8NHM5 1-650): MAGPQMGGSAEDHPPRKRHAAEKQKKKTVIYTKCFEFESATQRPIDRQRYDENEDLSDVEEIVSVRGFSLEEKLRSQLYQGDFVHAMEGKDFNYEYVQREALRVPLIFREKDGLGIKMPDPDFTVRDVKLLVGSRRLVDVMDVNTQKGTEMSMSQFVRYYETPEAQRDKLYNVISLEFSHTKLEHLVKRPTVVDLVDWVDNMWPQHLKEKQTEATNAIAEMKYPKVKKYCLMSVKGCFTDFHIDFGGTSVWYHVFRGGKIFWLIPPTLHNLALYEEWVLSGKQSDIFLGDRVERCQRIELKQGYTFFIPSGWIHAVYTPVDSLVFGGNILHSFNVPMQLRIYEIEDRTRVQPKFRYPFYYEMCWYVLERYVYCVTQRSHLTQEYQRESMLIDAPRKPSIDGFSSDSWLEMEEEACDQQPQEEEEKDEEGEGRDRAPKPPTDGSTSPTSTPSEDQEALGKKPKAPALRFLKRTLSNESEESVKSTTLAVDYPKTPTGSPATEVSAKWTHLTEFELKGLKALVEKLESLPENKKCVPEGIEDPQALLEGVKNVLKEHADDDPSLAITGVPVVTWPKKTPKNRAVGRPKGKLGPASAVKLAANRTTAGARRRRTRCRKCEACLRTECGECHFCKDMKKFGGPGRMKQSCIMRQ
Source text: as §1
as §2, with “FBXL10” for “FBXL11”, “0.3” for “0.15”, “FBXL10,” for “FBXL11,”
as §3, with “0.9” for “0.45”, “FBXL10” for “FBXL11”
(§4) The ability of the compounds disclosed herein to inhibit demethylase activity was quantified and the respective IC50 value was determined.

[3] = target: PHF8 (Homo sapiens (Human), UniProt Q9UPP1); assay: PHF8 in vitro enzyme inhibition assay (TR-FRET); conditions: 3 nM PHF8, H3K9me1-biotin peptide
PHF8, sequence (Q9UPP1 37-1060): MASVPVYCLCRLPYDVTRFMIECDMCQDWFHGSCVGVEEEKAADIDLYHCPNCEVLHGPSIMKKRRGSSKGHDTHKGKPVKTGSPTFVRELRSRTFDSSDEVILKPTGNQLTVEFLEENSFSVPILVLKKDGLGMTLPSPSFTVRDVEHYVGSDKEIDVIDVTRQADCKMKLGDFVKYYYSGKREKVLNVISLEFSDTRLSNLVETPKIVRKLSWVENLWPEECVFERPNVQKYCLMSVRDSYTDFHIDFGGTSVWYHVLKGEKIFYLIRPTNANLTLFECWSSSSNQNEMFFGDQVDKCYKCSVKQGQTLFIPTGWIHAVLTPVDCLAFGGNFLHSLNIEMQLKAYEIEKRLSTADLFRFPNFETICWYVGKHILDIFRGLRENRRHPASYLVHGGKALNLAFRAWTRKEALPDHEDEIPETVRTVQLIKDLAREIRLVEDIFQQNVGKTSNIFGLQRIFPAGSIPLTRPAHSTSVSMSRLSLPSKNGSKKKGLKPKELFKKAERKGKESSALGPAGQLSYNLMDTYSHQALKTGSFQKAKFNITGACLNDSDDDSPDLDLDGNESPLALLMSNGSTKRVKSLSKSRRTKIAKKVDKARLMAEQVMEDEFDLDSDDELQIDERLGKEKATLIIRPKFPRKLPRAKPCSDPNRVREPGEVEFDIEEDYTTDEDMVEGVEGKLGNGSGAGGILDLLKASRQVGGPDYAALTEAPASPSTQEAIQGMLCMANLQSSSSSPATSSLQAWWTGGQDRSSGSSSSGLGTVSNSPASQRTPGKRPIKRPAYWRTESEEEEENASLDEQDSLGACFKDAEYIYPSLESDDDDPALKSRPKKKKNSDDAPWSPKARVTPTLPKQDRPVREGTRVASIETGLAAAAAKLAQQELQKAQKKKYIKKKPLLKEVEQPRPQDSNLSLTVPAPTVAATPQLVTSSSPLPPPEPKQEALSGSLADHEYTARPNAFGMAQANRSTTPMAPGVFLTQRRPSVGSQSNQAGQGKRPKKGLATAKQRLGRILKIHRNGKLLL
Source text: as §1
The ability of test compounds to inhibit the activity of PHF8 was determined in 384-well plate format under the following reaction conditions: 3 nM PHF8, 200 nM H3K9me1-biotin labeled peptide (Anaspec cat #64358), 0.5 μM alpha-ketoglutaric acid in assay buffer of 50 mM HEPES, pH7.3, 0.005% Brij35, 0.5 mM TCEP, 0.2 mg/ml BSA, 50 μM sodium L-ascorbate, and 5 μM ammonium iron(II) sulfate. Reaction product was determined quantitatively by TR-FRET after the addition of detection reagent Phycolink Streptavidin-allophycocyanin (Prozyme) and Europium-anti-unmodified-histone H3 lysine 9/lysine27 (H3K9/K27) antibody (PerkinElmer) in the presence of 5 mM EDTA in LANCE detection buffer (PerkinElmer) at a final concentration of 25 nM and 0.5 nM, respectively.
The assay reaction was initiated by the following: 2 μl of the mixture of 600 nM H3K9me1-biotin labeled peptide and 1.5 μM alpha-ketoglutaric acid with 2 μl of 11-point serial diluted inhibitor in 3% DMSO were added to each well of the plate, followed by the addition of 2 μl of 9 nM PHF8 to initiate the reaction. The reaction mixture was incubated at room temperature for 15 minutes, and terminated by the addition of 6 μl of 5 mM EDTA in LANCE detection buffer containing 50 nM Phycolink Streptavidin-allophycocyanin and 1 nM Europium-anti-unmodified H3K9/K27 antibody. Plates were read by EnVision Multilabel Reader in TR-FRET mode (excitation at 320 nm, emission at 615 nm and 665 nm) after 1 hour incubation at room temperature. A ratio was calculated (665/615) for each well and fitted to determine inhibition constant (IC50).
as §4

FBXL11, sequence (Q9Y2K7 whole entry, the tested form may be a part): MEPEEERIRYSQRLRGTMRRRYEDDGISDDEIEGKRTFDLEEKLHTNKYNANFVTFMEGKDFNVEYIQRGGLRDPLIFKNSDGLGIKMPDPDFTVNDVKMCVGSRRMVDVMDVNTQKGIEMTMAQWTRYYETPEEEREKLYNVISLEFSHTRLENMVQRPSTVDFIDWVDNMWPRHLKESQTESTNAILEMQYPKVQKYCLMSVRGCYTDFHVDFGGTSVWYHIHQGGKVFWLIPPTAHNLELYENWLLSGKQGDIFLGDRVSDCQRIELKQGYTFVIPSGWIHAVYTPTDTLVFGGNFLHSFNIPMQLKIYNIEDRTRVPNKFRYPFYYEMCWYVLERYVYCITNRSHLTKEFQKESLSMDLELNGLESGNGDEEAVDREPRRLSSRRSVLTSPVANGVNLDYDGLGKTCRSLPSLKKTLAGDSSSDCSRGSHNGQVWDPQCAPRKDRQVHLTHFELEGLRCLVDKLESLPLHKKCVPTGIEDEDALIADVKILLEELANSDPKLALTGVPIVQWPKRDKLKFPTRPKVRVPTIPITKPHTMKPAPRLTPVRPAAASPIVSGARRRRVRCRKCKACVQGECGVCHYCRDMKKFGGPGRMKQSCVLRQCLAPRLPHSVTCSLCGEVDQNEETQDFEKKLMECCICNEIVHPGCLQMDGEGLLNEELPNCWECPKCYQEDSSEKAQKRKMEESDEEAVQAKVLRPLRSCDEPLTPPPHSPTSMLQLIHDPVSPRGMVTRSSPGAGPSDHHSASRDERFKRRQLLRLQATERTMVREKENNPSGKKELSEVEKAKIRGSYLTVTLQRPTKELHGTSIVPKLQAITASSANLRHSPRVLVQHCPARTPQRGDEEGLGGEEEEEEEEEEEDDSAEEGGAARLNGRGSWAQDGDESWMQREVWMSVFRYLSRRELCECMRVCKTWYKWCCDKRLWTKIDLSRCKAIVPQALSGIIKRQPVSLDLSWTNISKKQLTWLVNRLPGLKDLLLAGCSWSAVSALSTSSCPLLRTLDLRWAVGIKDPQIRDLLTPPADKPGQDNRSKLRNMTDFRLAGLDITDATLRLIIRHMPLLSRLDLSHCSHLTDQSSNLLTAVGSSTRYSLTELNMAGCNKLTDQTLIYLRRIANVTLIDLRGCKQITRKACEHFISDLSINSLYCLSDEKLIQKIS

| SMILES | IC50 [1] [nM] | IC50 [2] [nM] | IC50 [3] [nM] |
| --- | --- | --- | --- |
| COc1ccccc1CCn1cnc(-c2cc(-c3c[nH]nn3)ccn2)c1 [Example 7, 2-[1-[2-(2-methoxyphenyl)ethyl]imidazol-4-yl]-4-(1H-triazol-4-yl)pyridine] | ≤ 100 | ≤ 100 | 100 to 1000 |
| CCOc1ccccc1CCn1cnc(-c2cc(-c3c[nH]nn3)ccn2)c1 [Example 9, 2-[1-[2-(2-ethoxyphenyl)ethyl]imidazol-4-yl]-4-(1H-triazol-4-yl)pyridine] | ≤ 100 | ≤ 100 | 100 to 1000 |
| Clc1ccccc1Cn1cnc(-c2cc(-c3c[nH]nn3)ccn2)c1 [Example 2, 2-[1-[(2-chlorophenyl)methyl]imidazol-4-yl]-4-(1H-triazol-4-yl)pyridine] | 100 to 1000 | ≤ 100 | 100 to 1000 |
| c1ccc2c(CCn3cnc(-c4cc(-c5c[nH]nn5)ccn4)c3)cccc2c1 [Example 23, 2-[1-(2-naphthalen-1-ylethyl)imidazol-4-yl]-4-(1H-triazol-4-yl)pyridine] | ≤ 100 | ≤ 100 | 100 to 1000 |
| CC(c1ccccc1)n1cnc(-c2cc(-c3c[nH]nn3)ccn2)c1 (stereo not shown) [Example 5, 2-[1-(1-phenylethyl)imidazol-4-yl]-4-(1H-triazol-4-yl)pyridine] | ≤ 100 | ≤ 100 | 100 to 1000 |
| FC(F)(F)c1cccc(Cn2cnc(-c3cc(-c4c[nH]nn4)ccn3)c2)c1Cl [Example 22, 2-[1-[[2-chloro-3-(trifluoromethyl)phenyl]methyl]imidazol-4-yl]-4-(1H-triazol-4-yl)pyridine] | ≤ 100 | ≤ 100 | 100 to 1000 |
| c1ccc2c(c1)CCCC2Cn1cnc(-c2cc(-c3c[nH]nn3)ccn2)c1 (stereo not shown) [Example 8, 2-[1-(1,2,3,4-tetrahydronaphthalen-1-ylmethyl)imidazol-4-yl]-4-(1H-triazol-4-yl)pyridine] | ≤ 100 | ≤ 100 | 100 to 1000 |
| Clc1cccc(Cn2cnc(-c3cc(-c4c[nH]nn4)ccn3)c2)c1Cl [Example 21, 2-[1-[(2,3-dichlorophenyl)methyl]imidazol-4-yl]-4-(1H-triazol-4-yl)pyridine] | ≤ 100 | ≤ 100 | 100 to 1000 |
| Clc1ccccc1CCn1cnc(-c2cc(-c3c[nH]nn3)ccn2)c1 [Example 6, 2-[1-[2-(2-chlorophenyl)ethyl]imidazol-4-yl]-4-(1H-triazol-4-yl)pyridine] | ≤ 100 | ≤ 100 | ≤ 100 |
| CCOc1cc(-c2c(-c3cc(-c4c[nH]nn4)ccn3)ncn2C)ccc1F [Example 25, 2-[5-(3-ethoxy-4-fluorophenyl)-1-methylimidazol-4-yl]-4-(1H-triazol-4-yl)pyridine] | 100 to 1000 | ≤ 100 | 1000 to 10000 |
| c1ccc(OCC2CC2)c(CCn2cnc(-c3cc(-c4c[nH]nn4)ccn3)c2)c1 [Example 11, 2-[1-[2-[2-(cyclopropylmethoxy)phenyl]ethyl]imidazol-4-yl]-4-(1H-triazol-4-yl)pyridine] |  | ≤ 100 | 100 to 1000 |
| COc1cccc(Cn2cnc(-c3cc(-c4c[nH]nn4)ccn3)c2)c1F [Example 30, 2-[1-[(2-fluoro-3-methoxyphenyl)methyl]imidazol-4-yl]-4-(1H-triazol-4-yl)pyridine] |  | ≤ 100 | 100 to 1000 |
| Cn1cnc(-c2cc(-c3c[nH]nn3)ccn2)c1-c1ccc(F)cc1OCC1CC1 [Example 4, 2-[5-[2-(cyclopropylmethoxy)-4-fluorophenyl]-1-methylimidazol-4-yl]-4-(1H-triazol-4-yl)pyridine] | ≤ 100 | ≤ 100 | 1000 to 10000 |
